The source of these data is paper PMC3934894, “Inhibition of Human and Yeast 20S Proteasome by Analogues of Trypsin Inhibitor SFTI-1” (PLoS ONE, 2014).

Assay [1] has as its target T1, human 20S proteasome, chymotrypsin-like (ChT-L) activity (Homo sapiens, UniProt P28074). The experiment in a line: biochemical. Conditions: for IC50: ChT-like Human 20S IC50, SDS-activated human 20S, [E] 2.7 nM, pH 8.1, 37°C, Suc-LLVY-AMC 52 µM.
Procedure: (§1) An assay buffer was composed of 50 mM Tris-HCl (pH 8.1) and 0.02% (w/v) SDS (exceptionally, T-L activity was measured in Tris buffer without SDS, that may trigger precipitation of substrates containing the guanidino group [21]). […] The SFTI-1 analogues were incubated with 20S proteasome in assay buffer at 37°C for 30 min. Reactions were performed in 96-well black BRAND plates (Germany). The final volume of the solution in each well was 200 µL. […] Proteasomal subsite activities were determined by monitoring the AMC liberation over time with a Fluorostar Omega (BMG Labtech, Germany) using excitation and emission wavelengths of 380 nm and 450 nm, respectively. […] Association constants Ka were measured as described previously [14] and calculated using a two-parameter fit model (using the GraFit software package).
Assay [2] addresses yeast 20S proteasome, chymotrypsin-like (ChT-L) activity (Saccharomyces cerevisiae, UniProt P30656). The experiment in a line: ChT-L activity of SDS-activated yeast 20S proteasome (Suc-LLVY-AMC).
Procedure: (§2) The peptidase activities of 20S proteasome were assayed using fluorogenic tri- and tetra-peptides coupled at their C-termini with 7-amino-4-methylcoumarin group (AMC). The initial concentration of purified yeast 20S proteasome [E0] […] An assay buffer was composed of 50 mM Tris-HCl (pH 8.1) and 0.02% (w/v) SDS (exceptionally, T-L activity was measured in Tris buffer without SDS, that may trigger precipitation of substrates containing the guanidino group [21]). […] The SFTI-1 analogues were incubated with 20S proteasome in assay buffer at 37°C for 30 min. Reactions were performed in 96-well black BRAND plates (Germany). The final volume of the solution in each well was 200 µL. […] Proteasomal subsite activities were determined by monitoring the AMC liberation over time with a Fluorostar Omega (BMG Labtech, Germany) using excitation and emission wavelengths of 380 nm and 450 nm, respectively.
The target in assay [3] is human 20S proteasome, caspase-like (C-L) activity (Homo sapiens, UniProt P28072). The experiment in a line: C-L activity of SDS-activated human 20S proteasome (Z-LLE-AMC). Conditions: C-like Human 20S IC50, SDS-activated human 20S, pH 8.1, 37°C, Z-LLE-AMC 79 µM.
Procedure: as §1
For assay [4], the target named is human 20S proteasome, trypsin-like (T-L) activity (Homo sapiens, UniProt Q99436). Nature of the assay: T-L activity of latent human 20S proteasome (Z-LLR-AMC, no SDS). Particulars: T-like Human 20S IC50, latent human 20S, Tris buffer without SDS, pH 8.1, 37°C, Z-LLR-AMC 52 µM.
Procedure: as §2
Assay [5] deals with rat and porcine 20S proteasomes, C-L site. Further details: method as in PMID 19054805. Conditions: cited from earlier work.
For assay [6], the system named is rat and porcine 20S proteasomes, ChT-L. On the set-up: method as in PMID 19054805. Conditions: cited from earlier work.
Assay [7] relates to rat and porcine 20S proteasomes, T-L. Further details: method as in PMID 19054805. Conditions: cited from earlier work.
The test system of the next assay is 20S proteasome. On the set-up: method as in PMID 10805568. Conditions: ChT-L, T-L and C-L; cited from earlier work.
The target of assay [8] is T1, human 20S proteasome, chymotrypsin-like (ChT-L) activity.
Procedure: as §1
The mark [9] stands for this setting: ChT-like Yeast 20S IC50, SDS-activated yeast 20S, [E] 0.9 nM, pH 8.1, 37°C, 30 min incubation, Suc-LLVY-AMC 5.2 µM.

Several values for one entry are separate records, joined by “and”; a condition that tells them apart may be missing. Equal values may be shown once. Read-outs that look alike come from different tables or passages of the source. Peptide text beside a SMILES is read from it. * marks the point of attachment. Cbz = O=C(OCc1ccccc1)*

Take `CC[C@H](C)[C@@H]1NC(=O)[C@@H]2CCCN2C(=O)[C@H](CCCCN)NC(=O)[C@H](CCCCN)NC(=O)[C@H](CO)NC(=O)[C@H](Cc2ccccc2)NC(=O)[C@H]([C@@H](C)O)NC(=O)[C@@H](NC(=O)[C@H](CCCNC(=N)N)NC(=O)CN)CSSC[C@@H](C(=O)N[C@@H](Cc2ccccc2)C(=O)N2CCC[C@H]2C(=O)N[C@@H](CC(=O)O)C(=O)O)NC1=O` [Analogue VII] (HELM PEPTIDE1{G.R.C.T.F.S.K.K.P.I.C.F.P.D}$PEPTIDE1,PEPTIDE1,3:R3-11:R3$$$V2.0): in [1], the affinity corresponds to a Ki of 1.75 µM. Further, the IC50 (in general, the concentration needed to halve the response being measured) in assay [1] was determined as 3.41 µM; in assay [2], 5.34 µM; in assay [3], 2.8 µM; in assay [4], 45.3 µM.

In the case of `CC[C@H](C)[C@@H]1NC(=O)[C@@H]2CCCN2C(=O)[C@H]([C@@H](C)CC)NC(=O)[C@H](CCCNC(=N)N)NC(=O)[C@H](CO)NC(=O)[C@H](CCCCN)NC(=O)[C@H]([C@@H](C)O)NC(=O)[C@@H](NC(=O)[C@H](CCCNC(=N)N)NC(=O)CN)CSSC[C@@H](C(=O)N[C@@H](Cc2ccccc2)C(=O)N2CCC[C@H]2C(=O)N[C@@H](CC(=O)O)C(=O)O)NC1=O` [Analogue IV] (HELM PEPTIDE1{G.R.C.T.K.S.R.I.P.I.C.F.P.D}$PEPTIDE1,PEPTIDE1,3:R3-11:R3$$$V2.0), in [1], the Ki (commonly the equilibrium dissociation constant of an inhibitor or competing ligand from its target) turned out to be 1.31 µM. Further, the IC50 turned out to be 2.49 µM in assay [1], 5.36 µM in assay [2] (setting [9]), 2.44 µM in assay [3] and 60.5 µM in assay [4].

For `CC[C@H](C)[C@H](NC(=O)[C@H]([C@@H](C)CC)N(C)C(C)=O)C(=O)N[C@H](C(=O)N[C@@H](CC(C)C)C(=O)[C@@]1(C)CO1)[C@@H](C)O` [epoxomicin], the IC50 in [5] was 3.6 µM; in assay [6], 0.14 µM; in [7] it was 0.32 µM.

As to `C/C=C\NC(=O)[C@H]1NC(=O)[C@H](CC(N)=O)NC(=O)[C@@H](NC(=O)C(=O)[C@H](C)CC)Cc2ccc(O)c(c2)-c2cccc3c2NC(=O)[C@@]3(O)[C@@H]1O` [TMC-95B], the “reduction of 20S activities compared with TMC-95A” value in the assay with 20S proteasome is recorded as “to the same extent as TMC-95A”.

As for `C/C=C\NC(=O)[C@H]1NC(=O)[C@H](CC(N)=O)NC(=O)[C@@H](NC(=O)C(=O)[C@@H](C)CC)Cc2ccc(O)c(c2)-c2cccc3c2NC(=O)[C@@]3(O)[C@H]1O` [TMC-95C], the “times weaker than TMC-95A” value in the assay on 20S proteasome is listed as 20–150 times.

For the compound `CC[C@H](C)[C@@H]1NC(=O)[C@@H]2CCCN2C(=O)[C@H](CCCCN)NC(=O)[C@H](CCCCN)NC(=O)[C@H](CO)NC(=O)[C@H](CCCNC(=N)N)NC(=O)[C@H]([C@@H](C)O)NC(=O)[C@@H](NC(=O)[C@H](CCCNC(=N)N)NC(=O)CN)CSSC[C@@H](C(=O)N[C@@H](Cc2ccccc2)C(=O)N2CCC[C@H]2C(=O)N[C@@H](CC(=O)O)C(=O)O)NC1=O` [Analogue V] (HELM PEPTIDE1{G.R.C.T.R.S.K.K.P.I.C.F.P.D}$PEPTIDE1,PEPTIDE1,3:R3-11:R3$$$V2.0), the “times lower Ka than Z-LLL-CHO” value in [8] (human 20S ChT-L) is given as “about 6.5 times”. Further, the Kd (usually the free concentration of one partner at which half of the binding sites on the other are occupied at equilibrium, for simple one-to-one binding) in assay [1] worked out at 1 µM. In assay [1], this compound had a Ki of 0.31 µM. Moreover, the IC50 in assay [1] is 0.9 µM and 0.94 µM; in [2], 1.23 µM; in assay [3], 0.6 µM and 0.61 µM; in assay [4], 72.2 µM.

As to `CC(C)C[C@@H](C=O)NC(=O)[C@H](CC(C)C)NC(=O)[C@H](CC(C)C)NC(=O)OCc1ccccc1` [Z-LLL-CHO, reference compound] (Cbz-Leu-Leu-Leu-aldehyde), in assay [8], the “inhibition of ChT-L activity at 4 µM” value was “completely abolished”. Besides, the “ChT-like Human 20S Ka×10^5” value in [8] (pH 8.1) is 65.4. Further, the IC50 is 1.7 µM in [5]; 0.78 µM in assay [6]; 0.26 µM in [2]; 5.62 µM in [3]; 48.2 µM in [4]; 2.3 µM in [7].

As to `CC[C@H](C)[C@@H]1NC(=O)[C@@H]2CCCN2C(=O)[C@H](CCCCN)NC(=O)[C@H](CC(C)C)NC(=O)[C@H](CO)NC(=O)[C@H](CCCCN)NC(=O)[C@H]([C@@H](C)O)NC(=O)[C@@H](NC(=O)[C@H](CCCNC(=N)N)NC(=O)CN)CSSC[C@@H](C(=O)N[C@@H](Cc2ccccc2)C(=O)N2CCC[C@H]2C(=O)N[C@@H](CC(=O)O)C(=O)O)NC1=O` [Analogue II] (HELM PEPTIDE1{G.R.C.T.K.S.L.K.P.I.C.F.P.D}$PEPTIDE1,PEPTIDE1,3:R3-11:R3$$$V2.0), the affinity in assay [1] corresponds to a Ki of 1.23 µM. Further, the IC50 was 2.66 µM in assay [1], 2.15 µM in assay [2] (setting [9]), 6.74 µM in assay [3] and more than 100 µM in assay [4].

In [1], `CC[C@H](C)[C@@H]1NC(=O)[C@@H]2CCCN2C(=O)[C@H](CCCCN)NC(=O)[C@H](CCCCN)NC(=O)[C@H](CO)NC(=O)[C@H](CCCCN)NC(=O)[C@H]([C@@H](C)O)NC(=O)[C@@H](NC(=O)[C@H](CCCNC(=N)N)NC(=O)CN)CSSC[C@@H](C(=O)N[C@@H](Cc2ccccc2)C(=O)N2CCC[C@H]2C(=O)N[C@@H](CC(=O)O)C(=O)O)NC1=O` [Analogue X] (HELM PEPTIDE1{G.R.C.T.K.S.K.K.P.I.C.F.P.D}$PEPTIDE1,PEPTIDE1,3:R3-11:R3$$$V2.0) had a Ki of 0.66 µM. The IC50 was ~1.28 µM and 1.28 µM in [1]; ~16.7 µM and 16.7 µM in assay [2] (setting [9]); 1.12 µM in assay [3]; 86.7 µM in assay [4].

Take `CC[C@H](C)[C@@H]1NC(=O)[C@@H]2CCCN2C(=O)[C@H](CCCCN)NC(=O)[C@H](CCCCN)NC(=O)[C@H](CO)NC(=O)[C@H](Cc2ccc(O)cc2)NC(=O)[C@H]([C@@H](C)O)NC(=O)[C@@H](NC(=O)[C@H](CCCNC(=N)N)NC(=O)CN)CSSC[C@@H](C(=O)N[C@@H](Cc2ccccc2)C(=O)N2CCC[C@H]2C(=O)N[C@@H](CC(=O)O)C(=O)O)NC1=O` [Analogue VI] (HELM PEPTIDE1{G.R.C.T.Y.S.K.K.P.I.C.F.P.D}$PEPTIDE1,PEPTIDE1,3:R3-11:R3$$$V2.0): in [1], the Ki was 1.43 µM. The results for the IC50 in [2], in assay [3] and in assay [4] were 6.6 µM, 4.02 µM and 93.1 µM, respectively.

As for `CC[C@H](C)[C@@H]1NC(=O)[C@@H]2CCCN2C(=O)[C@H](CCCCN)NC(=O)[C@H](CC(C)C)NC(=O)[C@H](CO)NC(=O)[C@H](CCCNC(=N)N)NC(=O)[C@H]([C@@H](C)O)NC(=O)[C@@H](NC(=O)[C@H](CCCNC(=N)N)NC(=O)CN)CSSC[C@@H](C(=O)N[C@@H](Cc2ccccc2)C(=O)N2CCC[C@H]2C(=O)N[C@@H](CC(=O)O)C(=O)O)NC1=O` [Analogue III] (HELM PEPTIDE1{G.R.C.T.R.S.L.K.P.I.C.F.P.D}$PEPTIDE1,PEPTIDE1,3:R3-11:R3$$$V2.0), the Ki in assay [1] is 1.76 µM. The IC50 in assay [1] is 3.36 µM; in assay [2], 1.07 µM; in assay [3] it was 2.42 µM; in assay [4], more than 100 µM.

On to `CC[C@H](C)[C@@H]1NC(=O)[C@@H]2CCCN2C(=O)[C@H](C)NC(=O)[C@H](C)NC(=O)[C@H](CO)NC(=O)[C@H](CCCCN)NC(=O)[C@H]([C@@H](C)O)NC(=O)[C@@H](NC(=O)[C@H](CCCNC(=N)N)NC(=O)CN)CSSC[C@@H](C(=O)N[C@@H](Cc2ccccc2)C(=O)N2CCC[C@H]2C(=O)N[C@@H](CC(=O)O)C(=O)O)NC1=O` [Analogue IX] (HELM PEPTIDE1{G.R.C.T.K.S.A.A.P.I.C.F.P.D}$PEPTIDE1,PEPTIDE1,3:R3-11:R3$$$V2.0), for which the IC50 in assay [1] was more than 100 µM; in assay [2] (setting [9]) it was more than 100 µM; in assay [3] it was more than 100 µM; in [4] it was 62.1 µM. Moreover, in [2] (read-out: ChT-L activity remaining at about 100 µM), the remaining activity at 100 µM was not below 70%.

`CC[C@H](C)[C@@H]1NC(=O)[C@@H]2CCCN2C(=O)[C@H](CCCCN)NC(=O)[C@H](CCCCN)NC(=O)[C@H](CO)NC(=O)[C@H](C)NC(=O)[C@H]([C@@H](C)O)NC(=O)[C@@H](NC(=O)[C@H](CCCNC(=N)N)NC(=O)CN)CSSC[C@@H](C(=O)N[C@@H](Cc2ccccc2)C(=O)N2CCC[C@H]2C(=O)N[C@@H](CC(=O)O)C(=O)O)NC1=O` [Analogue VIII] (HELM PEPTIDE1{G.R.C.T.A.S.K.K.P.I.C.F.P.D}$PEPTIDE1,PEPTIDE1,3:R3-11:R3$$$V2.0): the affinity in assay [1], expressed as Ki, was 2.99 µM. Also, the IC50 in assay [1] is 5.8 µM; in assay [2], 8.82 µM; in [3] it was 5.37 µM; in assay [4] it was more than 100 µM.

Consider `CC[C@H](C)[C@@H]1NC(=O)[C@@H]2CCCN2C(=O)[C@@H]2CCCN2C(=O)[C@H]([C@@H](C)CC)NC(=O)[C@H](CO)NC(=O)[C@H](CCCCN)NC(=O)[C@H]([C@@H](C)O)NC(=O)[C@@H](NC(=O)[C@H](CCCNC(=N)N)NC(=O)CN)CSSC[C@@H](C(=O)N[C@@H](Cc2ccccc2)C(=O)N2CCC[C@H]2C(=O)N[C@@H](CC(=O)O)C(=O)O)NC1=O` [Analogue I], for which the affinity in assay [1], expressed as Ki, was 27 µM. Further, the IC50 is 51.6 µM in [1], 52 µM in [2] (setting [9]), 58.2 µM in assay [3] and more than 100 µM in [4].
